{"source": "paper PMC8747035", "about": "“Design, Synthesis, and Biological Evaluation of 5,6,7,8-Tetrahydrobenzo[4,5]thieno[2,3-d]pyrimidines as Microtubule Targeting Agents” (Molecules, 2022)", "type_in_all_cases": "cell-based", "key": {"SF-295": {"tested_on": "SF-295", "assay": "NCI-60 growth inhibition, SF-295", "settings": "Homo sapiens, CNS Cancer", "excerpt": "(§1) Compound 4 had better potency than the lead compound 1 in 50 cancer cell lines. (better by 5 to 6-fold in leukemia, 2 to 17-fold in NSCLC, 2 to 6-fold in colon cancer, 2 to 5-fold in CNS cancer, 2 to 25-fold in melanoma, 2 to 5-fold in ovarian cancer, 2 to 9-fold in renal cancer, 2 to 5-fold in prostate cancer, and 2 to 6-fold in breast cancer compared to lead compound 1)."}, "SN12C": {"tested_on": "SN12C", "assay": "NCI-60 growth inhibition, SN12C", "settings": "Homo sapiens, Renal Cancer", "excerpt": "as §1"}, "HL-60(TB)": {"tested_on": "HL-60(TB)", "assay": "NCI-60 growth inhibition, HL-60(TB)", "settings": "Homo sapiens, Leukemia", "excerpt": "as §1"}, "SW-620": {"tested_on": "SW-620", "assay": "NCI-60 growth inhibition, SW-620", "settings": "Homo sapiens, Colon Cancer", "excerpt": "as §1"}, "SNB-19": {"tested_on": "SNB-19", "assay": "NCI-60 growth inhibition, SNB-19", "settings": "Homo sapiens, CNS Cancer", "excerpt": "as §1"}, "NCI-H226": {"tested_on": "NCI-H226", "assay": "NCI-60 growth inhibition, NCI-H226", "settings": "Homo sapiens, NSCLC", "excerpt": "as §1"}, "MDA-MB-231/ATCC": {"tested_on": "MDA-MB-231/ATCC", "assay": "NCI-60 growth inhibition, MDA-MB-231/ATCC", "settings": "Homo sapiens, Breast Cancer", "excerpt": "as §1"}, "RXF 393": {"tested_on": "RXF 393", "assay": "NCI-60 growth inhibition, RXF 393", "settings": "Homo sapiens, Renal Cancer", "excerpt": "as §1"}, "EKVX": {"tested_on": "EKVX", "assay": "NCI-60 growth inhibition, EKVX", "settings": "Homo sapiens, NSCLC", "excerpt": "as §1"}, "K-562": {"tested_on": "K-562", "assay": "NCI-60 growth inhibition, K-562", "settings": "Homo sapiens, K562, Leukemia", "excerpt": "as §1"}, "PC-3": {"tested_on": "PC-3", "assay": "NCI-60 growth inhibition, PC-3", "settings": "Homo sapiens, Prostate Cancer", "excerpt": "as §1"}, "MOLT-4": {"tested_on": "MOLT-4", "assay": "NCI-60 growth inhibition, MOLT-4", "settings": "Homo sapiens, Leukemia", "excerpt": "as §1"}, "IGROVI": {"tested_on": "IGROVI", "assay": "NCI-60 growth inhibition, IGROVI", "settings": "Homo sapiens, Ovarian Cancer", "excerpt": "as §1"}, "OVCAR-8": {"tested_on": "OVCAR-8", "assay": "NCI-60 growth inhibition, OVCAR-8", "settings": "Homo sapiens, Ovarian Cancer", "excerpt": "as §1"}, "HOP-62": {"tested_on": "HOP-62", "assay": "NCI-60 growth inhibition, HOP-62", "settings": "Homo sapiens, NSCLC", "excerpt": "as §1"}, "HCT-15": {"tested_on": "HCT-15", "assay": "NCI-60 growth inhibition, HCT-15", "settings": "Homo sapiens, Colon Cancer", "excerpt": "as §1"}, "NCI-H460": {"tested_on": "NCI-H460", "assay": "NCI-60 growth inhibition, NCI-H460", "settings": "Homo sapiens, NSCLC", "excerpt": "as §1"}, "BT-549": {"tested_on": "BT-549", "assay": "NCI-60 growth inhibition, BT-549", "settings": "Homo sapiens, Breast Cancer", "excerpt": "as §1"}, "A498": {"tested_on": "A498", "assay": "NCI-60 growth inhibition, A498", "settings": "Homo sapiens, Renal Cancer", "excerpt": "as §1"}, "COLO 205": {"tested_on": "COLO 205", "assay": "NCI-60 growth inhibition, COLO 205", "settings": "Homo sapiens, Colon Cancer", "excerpt": "as §1"}, "MCF7": {"tested_on": "MCF7", "assay": "NCI-60 growth inhibition, MCF7", "settings": "Homo sapiens, Breast Cancer", "excerpt": "as §1"}, "786-0": {"tested_on": "786-0", "assay": "NCI-60 growth inhibition, 786-0", "settings": "Homo sapiens, Renal Cancer", "excerpt": "as §1"}, "MDA-MB-468": {"tested_on": "MDA-MB-468", "assay": "NCI-60 growth inhibition, MDA-MB-468", "settings": "Homo sapiens, Breast Cancer", "excerpt": "as §1"}, "SK-OV-3": {"tested_on": "SK-OV-3", "assay": "NCI-60 growth inhibition, SK-OV-3", "settings": "Homo sapiens, Ovarian Cancer", "excerpt": "as §1"}, "A-10 cells": {"tested_on": "A-10 cells", "assay": "Cellular microtubule depolymerization in A-10 cells (immunofluorescence)", "settings": "Rattus norvegicus, A10; 18 h, loss of 50% of interphase microtubules", "procedure": "We investigated the microtubule depolymerization and the antiproliferative activities of compounds 4–14 (Table 2). […] We next evaluated the importance of the 4′-OMe group of compound 4 by replacing it with an isosteric 4′-SMe (5). […] Clearly, this further substantiated the importance of an S in the scaffold over an NH.\nThe effects of the compounds on cellular microtubules were evaluated in A-10 cells using indirect immunofluorescence microscopy. These cells were obtained from the American Type Culture Collection (ATCC) (Manassas, VA, USA). Cells were treated with the compounds of interest for 18 h, and the cells fixed with cold MeOH and microtubule structures were visualized using a β-tubulin antibody (Sigma-Aldrich, St. Louis, MO, USA). The concentration that caused loss of 50% of the interphase microtubules was defined as the EC50 and calculated as previously described. These values represent an average of at least three independent experiments."}, "KM12": {"tested_on": "KM12", "assay": "NCI-60 growth inhibition, KM12", "settings": "Homo sapiens, Colon Cancer", "excerpt": "as §1"}, "HeLa cells": {"tested_on": "HeLa cells", "assay": "SRB assay in HeLa cells", "settings": "Homo sapiens, read-out: IC50 ± SD in HeLa", "procedure": "(§2) Compounds 4–8, 10, 12, and 13 were evaluated for their abilities to overcome βIII-tubulin mediated drug resistance using an isogenic HeLa cell line pair (Table 4). […] The Rr values (Table 4) were calculated by dividing the IC50 of the βIII-tubulin expressing line by the IC50 obtained in the parental HeLa cells.\n(§3) The antiproliferative and cytotoxic effects of the compounds in cancer cells were evaluated using the SRB assay as previously described. MDA-MB-435 cells were obtained from the Lombardi Cancer Center of Georgetown University (Washington, DC, USA). SK-OV-3 and HeLa cells were purchased from ATCC. Details about the generation of the SK-OV-3 MDR1-M6/6 and HeLa WTβIII cells were described previously. The IC50 values represent an average of three independent experiments, each conducted using triplicate points.\n(§4) HeLa, A-10, SK-OV-3, and SK-OV-3 MDR1-M6/6 cells were grown in Basal Medium Eagle (Sigma-Aldrich, St. Louis, MO, USA) supplemented with 10% FBS (Hyclone, GE Life Sciences, Logan, UT, USA) 1% GlutaMAX (Gibco, Life Technologies, Waltham, MA, USA) and 50 µg/mL gentamycin (Life Technologies, USA). HeLa WTβIII cells were grown in Dulbecco’s Modified Eagle Medium (Life Technologies) supplemented with 10% FBS and 50 µg/mL gentamycin. MDA-MB-435 cells were maintained in Improved Minimum Essential Medium (Life Technologies) supplemented with 10% FBS and 25 µg/mL gentamycin. All cells were grown at 37 °C in a humidified environment with 5% CO2."}, "HeLa WTβIII cells": {"tested_on": "HeLa WTβIII cells", "assay": "SRB assay in βIII-tubulin expressing HeLa WTβIII cells", "settings": "Homo sapiens, read-out: IC50 ± SD in HeLa WTβ3", "procedure": "as §2, §3, §4"}, "UO-31": {"tested_on": "UO-31", "assay": "NCI-60 growth inhibition, UO-31", "settings": "Homo sapiens, Renal Cancer", "excerpt": "as §1"}, "SK-MEL-5": {"tested_on": "SK-MEL-5", "assay": "NCI-60 growth inhibition, SK-MEL-5", "settings": "Homo sapiens, Melanoma", "excerpt": "as §1"}, "MDA-MB-435": {"tested_on": "MDA-MB-435", "assay": "NCI-60 growth inhibition, MDA-MB-435", "settings": "Homo sapiens, Melanoma", "excerpt": "as §1"}, "OVCAR-3": {"tested_on": "OVCAR-3", "assay": "NCI-60 growth inhibition, OVCAR-3", "settings": "Homo sapiens, Ovarian Cancer", "excerpt": "as §1"}, "U251": {"tested_on": "U251", "assay": "NCI-60 growth inhibition, U251", "settings": "Homo sapiens, U-251, CNS Cancer", "excerpt": "as §1"}}}
{"compound": "COc1ccc(N(C)c2nc(N)nc3sc4c(c23)CCCC4)cc1", "note": "[Compound 4, N4-(4-methoxyphenyl)-N4-methyl-5,6,7,8-tetrahydrobenzo[4,5]thieno[2,3-d]pyrimidine-2,4-diamine]", "values": [{"measurement": "GI50", "setting": "SF-295", "result": 10.2, "unit": "nM"}, {"measurement": "GI50", "setting": "SN12C", "result": 14.4, "unit": "nM"}, {"measurement": "GI50", "setting": "HL-60(TB)", "result": 4.38, "unit": "nM"}, {"measurement": "GI50", "setting": "SW-620", "result": 5.63, "unit": "nM"}, {"measurement": "GI50", "setting": "SNB-19", "result": 9.04, "unit": "nM"}, {"measurement": "GI50", "setting": "NCI-H226", "result": 17.5, "unit": "nM"}, {"measurement": "GI50", "setting": "MDA-MB-231/ATCC", "result": 10.9, "unit": "nM"}, {"measurement": "GI50", "setting": "RXF 393", "result": 7.65, "unit": "nM"}, {"measurement": "GI50", "setting": "EKVX", "result": 11.2, "unit": "nM"}, {"measurement": "GI50", "setting": "K-562", "result": 2.72, "unit": "nM"}, {"measurement": "GI50", "setting": "PC-3", "result": 7.67, "unit": "nM"}, {"measurement": "GI50", "setting": "MOLT-4", "result": 8.8, "unit": "nM"}, {"measurement": "GI50", "setting": "IGROVI", "result": 12.8, "unit": "nM"}, {"measurement": "GI50", "setting": "OVCAR-8", "result": 18.1, "unit": "nM"}, {"measurement": "GI50", "setting": "HOP-62", "result": 17.7, "unit": "nM"}, {"measurement": "GI50", "setting": "HCT-15", "result": 8.85, "unit": "nM"}, {"measurement": "GI50", "setting": "NCI-H460", "result": 10.4, "unit": "nM"}, {"measurement": "GI50", "setting": "BT-549", "result": 17.5, "unit": "nM"}, {"measurement": "GI50", "setting": "A498", "result": 12, "unit": "nM"}, {"measurement": "GI50", "setting": "COLO 205", "result": 10.8, "unit": "nM"}, {"measurement": "GI50", "setting": "MCF7", "result": 8.01, "unit": "nM"}, {"measurement": "GI50", "setting": "786-0", "result": 12.4, "unit": "nM"}, {"measurement": "GI50", "setting": "MDA-MB-468", "result": 6.05, "unit": "nM"}, {"measurement": "GI50", "setting": "SK-OV-3", "result": 15.6, "unit": "nM"}, {"measurement": "EC50", "setting": "A-10 cells", "result": 19, "unit": "nM"}, {"measurement": "GI50", "setting": "KM12", "result": 13.4, "unit": "nM"}, {"measurement": "IC50", "setting": "HeLa cells", "result": "13.5 ± 1.5", "unit": "nM"}, {"measurement": "IC50", "setting": "HeLa WTβIII cells", "result": "10.6 ± 1.8", "unit": "nM"}, {"measurement": "GI50", "setting": "UO-31", "result": 11.8, "unit": "nM"}, {"measurement": "GI50", "setting": "SK-MEL-5", "result": 10.8, "unit": "nM"}, {"measurement": "GI50", "setting": "MDA-MB-435", "result": 4.89, "unit": "nM"}, {"measurement": "GI50", "setting": "OVCAR-3", "result": 17.1, "unit": "nM"}, {"measurement": "GI50", "setting": "U251", "result": 9.6, "unit": "nM"}]}
